For this data set the following is noted: water at 20° C.; stated in words.

As to `COCCOC` [ethylene glycol dimethyl ether], the miscibility with water entry was “completely miscible with water”.

Source of the values: patent US20220325122A1, “Ink Set And Recording Method” (Seiko Epson Corporation, priority 2021, published 2022).
